Test results published in patent US12686873B2, “Plants having increased tolerance to herbicides” (priority 2012, dated 2026).
“And” between values parts separate entries of the source, which are not always exact repeats. Equal values may be shown once.

Experiments:
Soy = assay: Tolerance rates for soybean (injury score 0-9); conditions: Soy
[1] = tested on: Chlamydomonas reinhardtii strains; assay: Selection and dose-response of Chlamydomonas reinhardtii strains
[2] = tested on: transgenic T1 Arabidopsis plants; assay: Transgenic T1 Arabidopsis greenhouse tolerance study (injury rating); conditions: SEQ_ID 2 & 4, L397D, F420V

Question: How did the injury score (Soy; 1,5-dimethyl-6-thioxo-3-(...)-1,3,5-triazinane-2,4-dione 12.5 g ai/ha, amino acid substitution F420L, SEQ ID NO 2) turn out when `C#CCN1C(=O)C(F)(F)Oc2cc(F)c(-n3c(=O)n(C)c(=S)n(C)c3=O)cc21` was run?
Answer: 2 and 1

Question: And the injury score (Soy; 1,5-dimethyl-6-thioxo-3-(...)-1,3,5-triazinane-2,4-dione 12.5 g ai/ha, amino acid substitution L369D, F392V, SEQ ID NO 40)?
Answer: 8 and 5 and 7 and 6 and 4

Question: What about the injury score (Soy; 1,5-dimethyl-6-thioxo-3-(...)-1,3,5-triazinane-2,4-dione 12.5 g ai/ha, amino acid substitution L397D, F420V, SEQ ID NO 2) of the same molecule?
Answer: 2

Question: What about the injury score (Soy; 1,5-dimethyl-6-thioxo-3-(...)-1,3,5-triazinane-2,4-dione 12.5 g ai/ha, amino acid substitution L397E, SEQ ID NO 2) of the same molecule?
Answer: 5 and 7 and 6 and 4 and 8

Question: What about the injury score (Soy; 1,5-dimethyl-6-thioxo-3-(...)-1,3,5-triazinane-2,4-dione 12.5 g ai/ha, amino acid substitution L397Q, SEQ ID NO 2) of the same molecule?
Answer: 7

Question: What about the injury score (Soy; 1,5-dimethyl-6-thioxo-3-(...)-1,3,5-triazinane-2,4-dione 12.5 g ai/ha, amino acid substitution none, SEQ ID NO 2) of the same molecule?
Answer: 3 and 7 and 6 and 5

Question: What about the injury score (Soy; 1,5-dimethyl-6-thioxo-3-(...)-1,3,5-triazinane-2,4-dione 12.5 g ai/ha, amino acid substitution none, SEQ ID NO 40) of the same molecule?
Answer: 8 and 6 and 7 and 9

Question: What about the injury score (Soy; 1,5-dimethyl-6-thioxo-3-(...)-1,3,5-triazinane-2,4-dione 25 g ai/ha, amino acid substitution F420L, SEQ ID NO 2) of the same molecule?
Answer: 9 and 1 and 3 and 4 and 5

Question: What about the injury score (Soy; 1,5-dimethyl-6-thioxo-3-(...)-1,3,5-triazinane-2,4-dione 25 g ai/ha, amino acid substitution F420M, SEQ ID NO 2) of the same molecule?
Answer: 4 and 1 and 5 and 8

Question: What about the injury score (Soy; 1,5-dimethyl-6-thioxo-3-(...)-1,3,5-triazinane-2,4-dione 25 g ai/ha, amino acid substitution L369D, F392V, SEQ ID NO 40) of the same molecule?
Answer: 9 and 8 and 6 and 7 and 4

Question: What about the injury score (Soy; 1,5-dimethyl-6-thioxo-3-(...)-1,3,5-triazinane-2,4-dione 25 g ai/ha, amino acid substitution L397D, F420V, SEQ ID NO 2) of the same molecule?
Answer: 5

Question: And the injury score (Soy; 1,5-dimethyl-6-thioxo-3-(...)-1,3,5-triazinane-2,4-dione 25 g ai/ha, amino acid substitution L397D, SEQ ID NO 2)?
Answer: 8 and 4 and 5

Question: What about the injury score (Soy; 1,5-dimethyl-6-thioxo-3-(...)-1,3,5-triazinane-2,4-dione 25 g ai/ha, amino acid substitution L397E, F420M, SEQ ID NO 2) of the same molecule?
Answer: 2 and 1 and 0

Question: What about the injury score (Soy; 1,5-dimethyl-6-thioxo-3-(...)-1,3,5-triazinane-2,4-dione 25 g ai/ha, amino acid substitution L397E, SEQ ID NO 2) of the same molecule?
Answer: 5 and 8 and 6 and 7

Question: And the injury score (Soy; 1,5-dimethyl-6-thioxo-3-(...)-1,3,5-triazinane-2,4-dione 25 g ai/ha, amino acid substitution L397Q, F420M, SEQ ID NO 2)?
Answer: 3 and 7 and 2 and 0 and 6

Question: And the injury score (Soy; 1,5-dimethyl-6-thioxo-3-(...)-1,3,5-triazinane-2,4-dione 25 g ai/ha, amino acid substitution L397Q, F420V, SEQ ID NO 2)?
Answer: 4 and 6

Question: And the injury score (Soy; 1,5-dimethyl-6-thioxo-3-(...)-1,3,5-triazinane-2,4-dione 25 g ai/ha, amino acid substitution L397Q, SEQ ID NO 2)?
Answer: 9

Question: What about the injury score (Soy; 1,5-dimethyl-6-thioxo-3-(...)-1,3,5-triazinane-2,4-dione 25 g ai/ha, amino acid substitution none, SEQ ID NO 2) of the same molecule?
Answer: 5 and 7 and 6 and 8

Question: What about the injury score (Soy; 1,5-dimethyl-6-thioxo-3-(...)-1,3,5-triazinane-2,4-dione 25 g ai/ha, amino acid substitution none, SEQ ID NO 40) of the same molecule?
Answer: 9 and 6 and 7 and 8

Question: What about the injury score (Soy; 1,5-dimethyl-6-thioxo-3-(...)-1,3,5-triazinane-2,4-dione 50 g ai/ha, amino acid substitution F420L, SEQ ID NO 2) of the same molecule?
Answer: 6

Question: What about the injury score (Soy; 1,5-dimethyl-6-thioxo-3-(...)-1,3,5-triazinane-2,4-dione 50 g ai/ha, amino acid substitution F420M, SEQ ID NO 2) of the same molecule?
Answer: 3 and 4 and 2 and 5 and 9

Question: And the injury score (Soy; 1,5-dimethyl-6-thioxo-3-(...)-1,3,5-triazinane-2,4-dione 50 g ai/ha, amino acid substitution L369D, F392V, SEQ ID NO 40)?
Answer: 8 and 7

Question: And the injury score (Soy; 1,5-dimethyl-6-thioxo-3-(...)-1,3,5-triazinane-2,4-dione 50 g ai/ha, amino acid substitution L397D, F420V, SEQ ID NO 2)?
Answer: 4

Question: And the injury score (Soy; 1,5-dimethyl-6-thioxo-3-(...)-1,3,5-triazinane-2,4-dione 50 g ai/ha, amino acid substitution L397D, SEQ ID NO 2)?
Answer: 9 and 5 and 8 and 4 and 6

Question: And the injury score (Soy; 1,5-dimethyl-6-thioxo-3-(...)-1,3,5-triazinane-2,4-dione 50 g ai/ha, amino acid substitution L397E, F420M, SEQ ID NO 2)?
Answer: 2 and 1

Question: What about the injury score (Soy; 1,5-dimethyl-6-thioxo-3-(...)-1,3,5-triazinane-2,4-dione 50 g ai/ha, amino acid substitution L397Q, F420M, SEQ ID NO 2) of the same molecule?
Answer: 2 and 7 and 3 and 4 and 6 and 5 and 1

Question: What about the injury score (Soy; 1,5-dimethyl-6-thioxo-3-(...)-1,3,5-triazinane-2,4-dione 50 g ai/ha, amino acid substitution L397Q, F420V, SEQ ID NO 2) of the same molecule?
Answer: 5 and 7

Question: What about the injury score (Soy; 1,5-dimethyl-6-thioxo-3-(...)-1,3,5-triazinane-2,4-dione 75 g ai/ha, amino acid substitution L397E, F420M, SEQ ID NO 2) of the same molecule?
Answer: 2 and 3 and 1

Question: What about the injury score (Soy; 1,5-dimethyl-6-thioxo-3-(...)-1,3,5-triazinane-2,4-dione 75 g ai/ha, amino acid substitution L397Q, F420M, SEQ ID NO 2) of the same molecule?
Answer: 3 and 7 and 8 and 4 and 5 and 6 and 2

Question: What about the injury score (Soy; 1,5-dimethyl-6-thioxo-3-(...)-1,3,5-triazinane-2,4-dione 75 g ai/ha, amino acid substitution L397Q, F420V, SEQ ID NO 2) of the same molecule?
Answer: 5 and 7

Question: And the “growth of mutagenized cells plated on solid medium containing the herbicide” value ([1]; 1×10^−7 M in solid medium, FIG. 2B)?
Answer: susceptible cells do not grow

Question: What about the “IC50 of mutagenized cells (strain 17) compared to Wild-type cells” value ([1]; dose-response curve, FIG. 3B versus FIG. 3A) of the same molecule?
Answer: much lower IC50

Question: What about the “Injury Rating 0-100% (0 = no injury, 100 = total control)” value ([2]; 75 g/Ha + 1% MSO, 7 DAT, Line 1) of the same molecule?
Answer: 98%

Question: What about the “Injury Rating 0-100% (0 = no injury, 100 = total control)” value ([2]; 75 g/Ha + 1% MSO, 7 DAT, Line 2) of the same molecule?
Answer: 100%

Question: And the “Injury Rating 0-100% (0 = no injury, 100 = total control)” value ([2]; 75 g/Ha + 1% MSO, 7 DAT, Line 3)?
Answer: 80%

Question: And the “Injury Rating 0-100% (0 = no injury, 100 = total control)” value ([2]; 75 g/Ha + 1% MSO, 19 DAT, Line 1)?
Answer: 95%

Question: And the “Injury Rating 0-100% (0 = no injury, 100 = total control)” value ([2]; 75 g/Ha + 1% MSO, 19 DAT, Line 2)?
Answer: 100%

Question: And the “Injury Rating 0-100% (0 = no injury, 100 = total control)” value ([2]; 75 g/Ha + 1% MSO, 19 DAT, Line 3)?
Answer: 95%

Question: And the “Injury Rating 0-100% (0 = no injury, 100 = total control)” value ([2]; 150 g/Ha + 1% MSO, 7 DAT, Line 1)?
Answer: 30%

Question: And the “Injury Rating 0-100% (0 = no injury, 100 = total control)” value ([2]; 150 g/Ha + 1% MSO, 7 DAT, Line 2)?
Answer: 98%

Question: What about the “Injury Rating 0-100% (0 = no injury, 100 = total control)” value ([2]; 150 g/Ha + 1% MSO, 7 DAT, Line 3) of the same molecule?
Answer: 98%

Question: What about the “Injury Rating 0-100% (0 = no injury, 100 = total control)” value ([2]; 150 g/Ha + 1% MSO, 19 DAT, Line 1) of the same molecule?
Answer: 65%

Question: And the “Injury Rating 0-100% (0 = no injury, 100 = total control)” value ([2]; 150 g/Ha + 1% MSO, 19 DAT, Line 2)?
Answer: 100%

Question: And the “Injury Rating 0-100% (0 = no injury, 100 = total control)” value ([2]; 150 g/Ha + 1% MSO, 19 DAT, Line 3)?
Answer: 100%

Question: And the “Injury Rating 0-100% (0 = no injury, 100 = total control)” value ([2]; 300 g/Ha + 1% MSO, 7 DAT, Line 1)?
Answer: 100%

Question: What about the “Injury Rating 0-100% (0 = no injury, 100 = total control)” value ([2]; 300 g/Ha + 1% MSO, 7 DAT, Line 2) of the same molecule?
Answer: 30%

Question: And the “Injury Rating 0-100% (0 = no injury, 100 = total control)” value ([2]; 300 g/Ha + 1% MSO, 7 DAT, Line 3)?
Answer: 35%

Question: And the “Injury Rating 0-100% (0 = no injury, 100 = total control)” value ([2]; 300 g/Ha + 1% MSO, 19 DAT, Line 1)?
Answer: 98%

Question: What about the “Injury Rating 0-100% (0 = no injury, 100 = total control)” value ([2]; 300 g/Ha + 1% MSO, 19 DAT, Line 2) of the same molecule?
Answer: 60%

Question: What about the “Injury Rating 0-100% (0 = no injury, 100 = total control)” value ([2]; 300 g/Ha + 1% MSO, 19 DAT, Line 3) of the same molecule?
Answer: 80%
